# Data as given in patent US20050170345A1, “Neuroglobin is up-regulated by and protects neurons from hypoxic-ischemic injury” (priority 2001, published 2005).
# Entries after “also recorded” stand apart in the source; their conditions may differ. {Fluorescein} = fluorescein label
# Legend:
# Format in all cases: cell-based, mouse
# Ngb mRNA = assay: Ngb protein expression in cultured cortical neurons transfected with antisense/sense ODN (Western blot); settings: ODN-transfected cortical neurons vs sense-transfected or untransfected control cultures
# Method: Cell lysates were prepared as described (Jin et al. (2000) Proc. Natl. Acad. Sci. U.S.A. 97: 10242-10247) and 100-μg protein samples were electrophoresed on 12% SDS-PAGE gels and transferred to polyvinyldifluoridine membranes. Membranes were incubated overnight at 4° C. with a rabbit polyclonal antibody against Ngb (1:2000), which was produced by immunizing with a synthetic peptide corresponding to amino-acids 35-50 (NH2-CLSSPEFLDHIRKVML-COOH, , SEQ ID NO:1) of mouse Ngb, and affinity-purified using a Sulfolink kit (Pierce). A horseradish peroxidase-conjugated anti-rabbit secondary antibody (Santa Cruz Biotechnology) and a chemiluminescence substrate system (NEN) were used to visualize the immunolabeled bands (Id.).
# (§1) A phosphorothioate antisense ODN labeled with fluorescein at the 5′ end and directed against the initial coding region of the target Ngb mRNA (5′-TCC GGG CGC TCC AT-3′, from nucleotides 90-77, SEQ ID NO:2)was designed based on the mouse Ngb sequence obtained from Genbank (accession number NM 022414). […] Cultures were analyzed by Western blotting and by MTT cell viability assay, and fluorescence microscopy was used to confirm transfection and examine its relationship to cell death, using caspase-3 activation as a marker.
# [1] = tested on: cultured cortical neurons; assay: Transfection efficiency of fluorescent ODN in cortical neuron cultures; settings: fluorescent Ngb antisense ODN, DAPI counterstain, n=10
# Source text: A phosphorothioate antisense ODN labeled with fluorescein at the 5′ end and directed against the initial coding region of the target Ngb mRNA (5′-TCC GGG CGC TCC AT-3′, from nucleotides 90-77, SEQ ID NO:2)was designed based on the mouse Ngb sequence obtained from Genbank (accession number NM 022414). This and a sense sequence (5′-ATG GAG CGC CCG GA-3′, SEQ ID NO:3), from nucleotides 77-90) were synthesized commercially (Operon Technologies) and purified by HPLC. Cultures were transfected with ODNs (1-10 μM) using FuGENE 6 (Roche), beginning 3 h before the onset of hypoxia. Cultures were analyzed by Western blotting and by MTT cell viability assay, and fluorescence microscopy was used to confirm transfection and examine its relationship to cell death, using caspase-3 activation as a marker.
# To begin to investigate the possibility that Ngb protects neurons from hypoxia, cultured neurons were transfected with a phosphorothioate antisense ODN directed against the initial coding region of the target Ngb mRNA (5′-TCC GGG CGC TCC AT-3′, from nucleotides 90-77, SEQ ID NO:4) or with a control sense sequence (5′-ATG GAG CGC CCG GA-3′, from nucleotides 77-90, SEQ ID NO:5), both labeled with fluorescein at the 5′ end. Transfection efficiency, measured in cultures transfected with the fluorescent Ngb antisense ODN and counterstained with DAPI, was 96±1% (n=10). […]
# [2] = tested on: cultured cortical neurons; assay: Cell viability (MTT absorbance, trypan blue exclusion) of ODN-treated cultured cortical neurons
# Method: Neuronal cultures were prepared from the cerebral hemispheres of 16-day Charles River CD1 mouse embryos, seeded at 3×10^5 cells per well on 24-well culture dishes precoated with poly-D-lysine, and grown in Eagle's minimal essential medium (GIBCO BRL) with 5% horse serum and 5% fetal bovine serum (Jin et al. (2000) Proc. Natl. Acad. Sci. U.S.A. 97: 10242-10247). Cultures were treated with 10 μM cytosine arabinoside on day 6 and used on day 11, when >95% of cells expressed the neuronal marker, microtubule-associated protein 2. […] Cell viability was assayed by incubating cultures with 5 mg/ml of 3-(4,5-dimethylthiazol-2-yl)-2,5-diphenyl tetrazolium bromide (MTT) at 37° C. for 2 h and measuring absorbance at 570 nm in solubilized cells using a Cytofluor Series 4000 multi-well plate-reader (PerSeptive Biosystems). […]
# as §1
# [3] = tested on: 17-20 kDa caspase-3 cleavage product; assay: Caspase-3 cleavage product immunofluorescence in ODN-transfected cortical neurons; settings: fluorescence microscopy, hypoxic cortical neurons
# Method: Cultures were fixed with 4% paraformaldehyde and incubated over night at 4° C. with one or more of the following primary antibodies: rabbit polyclonal anti-Ngb (1:200), mouse monoclonal anti-NeuN (1:200, Chemicon), and rabbit polyclonal anti-17-20 kDa caspase-3 cleavage product (1:100, New England Biolabs). The secondary antibodies (all 1:200) were fluorescein isothiocyanate-conjugated goat anti-rabbit or anti-mouse IgG (Vector) and rhodamine-conjugated donkey anti-rabbit IgG (Jackson ImmunoResearch). Controls for non-specific binding included omitting primary (FIG. 1C) or secondary antibodies. In addition, in some cultures, nuclei were labeled with 4′,6-diamidino-2-phenylindole (DAPI) or DNA strand breaks were labeled with the Klenow fragment of DNA polymerase I (Roche) followed by rhodamine avidin D (Vector), as described (Jin et al. (1999) J Neurochem 72: 1204-1214). Fluorescence signals were detected with a Nikon E800 epifluorescence microscope using excitation/emission wavelengths of 535/565 nm for rhodamine (red), 470/505 nm for fluorescein isothiocyanate (green) and 360/400 nm for DAPI (blue). Results were recorded with a Magnifire digital color camera (Optronics). […]
substance,measurement,setting,value
"5′-TCC GGG CGC TCC AT-3′ (antisense TCCGGGCGCTCCAT; DNA, all phosphorothioate, 5' {Fluorescein}, methylation of C not given here) [antisense ODN]",Ngb protein expression,Ngb mRNA,reduced; also recorded: decreased Ngb expression
same,Transfection efficiency,[1],96±1%
same,effect on the toxicity of staurosporine or SNP,"[2]; 0.1 μM staurosporine or 200-400 μM SNP, 12 h, 5 μM ODN",no effect
same,viability of cultured neurons exposed to hypoxia,"[2]; 12 h without oxygen, 5 μM ODN added 3 h prior, MTT absorbance or trypan blue exclusion",decrease in the viability
same,transfected cells co-expressing the 17-20 kDa caspase-3 cleavage product,[3],many
